Laboratory results taken from the C3SDB collision cross section collection.

Columns and labels:
[1] = instrument: DT, stepped-field
[2] = instrument: TW, calibrated with polyalanine
[3] = instrument: DT, stepped-field; remark: listed apart in the source
[4] = instrument: DT, single field, calibrated with Agilent tune mix (Agilent)
[5] = [M+H]+; instrument: TW; calibrated with polyalanine

With `NC(CCS)C(=O)O` (racemic) [DL-Homocysteine] the “collision cross section (N2)” value ([1]; [M+H]+) was 130.78 Å².

In the case of `COc1cc2c(c3oc(=O)c4c(c13)CCOC4=O)[C@@H]1CCO[C@@H]1O2` [Aflatoxin G2], the “collision cross section (N2)” value ([2]; [M+H]+) is reported as 166 Å², the “collision cross section (N2)” value ([2]; [M+K]+) is reported as 181 Å² and the “collision cross section (N2)” value ([2]; [M+Na]+) is reported as 176.4 Å².

In the case of `CN1CC(=O)N=C1N` [Creatinine], the “collision cross section (N2)” value ([1]; [M+H]+) is reported as 123.87 Å², the “collision cross section (N2)” value ([1]; [M+Na]+) is reported as 132.99 Å² and the “collision cross section (N2)” value ([1]; [M-H]-) is reported as 120.7 Å². For the same molecule, the “collision cross section (N2)” value ([3]; [M+H]+) was 123.93 Å², the “collision cross section (N2)” value ([3]; [M+Na]+) was 133.41 Å² and the “collision cross section (N2)” value ([4]; [M+H]+) was 123.4 Å². The “collision cross section (N2)” value ([4]; [M-H]-) was 116.68 Å².

In the case of `CC(=O)OC[C@]12CCC(C)=C[C@H]1O[C@@H]1[C@H](O)[C@@H](OC(C)=O)[C@@]2(C)[C@@]12CO2` [Diacetoxyscirpenol], the “collision cross section (N2)” value ([2]; [M+NH4]+) is reported as 192 Å².

For `CCC(C)[C@H](NC(=O)[C@H](CC(C)C)NC(=O)[C@H](CC(=O)O)NC(=O)[C@@H](N)CCC(=O)O)C(=O)N[C@@H](C)C(=O)N[C@@H](Cc1ccc(O)cc1)C(=O)N[C@@H](CC(C)C)C(=O)N[C@@H](CCCCN)C(=O)O` (stereo not given in full) [EDLIAYLK], the “collision cross section (N2)” value ([1]; [M+2H]2+) was 340.98 Å² and the “collision cross section (N2)” value ([1]; [M+H]+) was 307.47 Å².

In the case of `CC[C@H](C)[C@H]1C(=O)O[C@H](C(C)C)C(=O)N(C)[C@@H](C(C)C)C(=O)O[C@H](C(C)C)C(=O)N(C)[C@@H](C(C)C)C(=O)O[C@H](C(C)C)C(=O)N1C` [Enniatin B1], the “collision cross section (N2)” value ([2]; [M+H]+) is reported as 246.4 Å², the “collision cross section (N2)” value ([2]; [M+K]+) is reported as 254.7 Å² and the “collision cross section (N2)” value ([2]; [M+NH4]+) is reported as 253 Å². For the same molecule, the “collision cross section (N2)” value ([2]; [M+Na]+) was 253.4 Å².

For `CNC[C@H](O)c1ccc(O)c(O)c1` [Epinephrine], the “collision cross section (N2)” value [5] was 133 Å², the “collision cross section (N2)” value ([4]; [M+H-H2O]+) was 138.3 Å² and the “collision cross section (N2)” value ([4]; [M-H]-) was 137.87 Å².

In the case of `CC(=O)O[C@@H]1[C@@H](O)[C@H]2O[C@@H]3C=C(C)C(=O)[C@@H](O)[C@]3(CO)[C@]1(C)[C@]21CO1` [Fusarenon X], the “collision cross section (N2)” value ([2]; [M+H3C2O2]-) is reported as 195 Å².

For `N[C@H]1[C@@H](OP(=O)(O)O)O[C@H](CO)[C@@H](O)[C@@H]1O` [Glucosamine 1-phosphate], the “collision cross section (N2)” value [5] was 153 Å² and the “collision cross section (N2)” value ([4]; [M+Na]+) was 158.5 Å².

In the case of `N[C@H]1C(O)O[C@H](CO)[C@@H](O)[C@@H]1O` (stereo not given in full) [Glucosamine], the “collision cross section (N2)” value [5] is reported as 135 Å² and the “collision cross section (N2)” value ([4]; [M+H-H2O]+) is reported as 132.9 Å².

In the case of `C[C@]12CCC(=O)C=C1CC[C@@H]1[C@@H]2[C@@H](O)C[C@@]2(C)[C@H]1CC[C@]2(O)C(=O)CO` [Hydrocortisone], the “collision cross section (N2)” value ([1]; [M+H]+) is reported as 189.27 Å², the “collision cross section (N2)” value ([1]; [M+Na]+) is reported as 213.72 Å² and the “collision cross section (N2)” value ([4]; [M-H2O-H]-) is reported as 182.99 Å².

For `CCC(C)[C@H](N)C(=O)N[C@@H](Cc1ccccc1)C(=O)N[C@H](C(=O)N[C@@H](CCC(N)=O)C(=O)N[C@@H](CCCCN)C(=O)O)C(C)C` (stereo not given in full) [IFVQK], the “collision cross section (N2)” value ([1]; [M+2H]2+) was 285.5 Å² and the “collision cross section (N2)” value ([1]; [M+H]+) was 248.88 Å².

For `N[C@@H](CC(=O)O)C(=O)O` [L-Aspartic acid], the “collision cross section (N2)” value ([1]; [M-H]-) was 120.39 Å².

In the case of `NCCCC[C@H](N)C(=O)O` [L-Lysine], the “collision cross section (N2)” value ([1]; [M+H]+) is reported as 131.62 Å², the “collision cross section (N2)” value ([3]; [M+H]+) is reported as 131.8 Å² and the “collision cross section (N2)” value ([4]; [M+H]+) is reported as 130.7 Å².
